{"source": "patent US20160251402A1", "about": "“MICROPEPTIDES AND USE OF SAME FOR MODULATING GENE EXPRESSION” (UNIVERSITE PAUL SABATIER TOULOUSE III, priority 2013, published 2016)", "system": "Medicago truncatula lateral roots", "assay": "Number of lateral roots in M. truncatula", "assay_type": "in vivo", "description": "The surface of seeds of M truncatula was sterilized and they were left to germinate on agar plates for 5 days at 4° C. in the dark. The young shoots were then grown on 12-cm square plates filled with Fahraeus medium without nitrogen and containing 7.5 μM phosphate (Lauressergues et al., Plant J., 72(3): 512-22, 2012). The lateral roots were counted every day. In pots, the plants were watered every other day with modified Long Ashton medium with low phosphorus content (Balzergue et al., Journal of Experimental Botany, (62)1049-1060, 2011). The mean values of the relative expression of the genes or of the production of lateral roots were analysed using the Student test or the Kruskal-Wallis test. The error bars represent the SEM (Standard Error of the Mean). The asterisks indicate a significant difference (p<0.05)."}
{"sequence": "MLLHRLSKFCKIERDIVYIS (listed as Medicago truncatula) [MtmiPEP171b1]", "values": [{"measurement": "mean number of lateral roots", "setting": "plant in which MtmiPEP171b1 is overexpressed vs control plant", "value": "reduction in the number of lateral roots"}, {"measurement": "mean number of lateral roots", "setting": "watering with peptide at 0.1 μM once daily for 5 days vs control plant", "value": "reduction in the number of lateral roots"}]}
